Test results taken from patent publication US20240092774A1, “HETEROAROMATIC COMPOUNDS AND USES THEREOF” (HUTCHISON MEDIPHARMA LIMITED, priority 2020, published 2024).

What was measured:
[1] = target: Recombinant human CSF1R kinase (Homo sapiens (Human), UniProt P07333); assay: Measurement of CSF1R kinase activity at molecular level (Z-LYTE); format: biochemical; conditions: Z-LYTE Tyr 1 peptide
Experimental: Invitrogen, PV3227; • Development reagent B: Invitrogen, PV3295; • Development buffer: Invitrogen. P3127; • Stopping solution: Invitrogen, P3094; • Recombinant human CSF1R kinase: Invitrogen, P[…]; • 384 well plate, black: Corning. 3575; • Envision: Perkin Elmer. 2. […] The test compound was diluted in gradient to 4-fold the reaction concentration and the concentration of DMSO was kept at 8%. […] The mixture was mixed gently with a pipette. • 4) A phosphorylated peptide substrate solution (PP solution): 0.4 μL of Z-LYTETM Tyr1 phosphorylated peptide substrate was added to 99.6 μl of 1.33× kinase buffer. • 5) ATP solution: 10 mM of ATP was diluted to 760 μM with 1.33× kinase buffer to prepare ATP solution. • 6) Development solution: Development reagent B was diluted with Development buffer at a ratio of 1:200. 3. […] 2.5 μL of 4× test compound was added to each reaction well of the 384 plate, and the corresponding volume of 8% DMSO was added to the control well. The plate was placed on ice. […] After adding the reaction components, the 384-well plate was sealed and incubated at 25-30° C. for 1 h in dark. 2) Development Reaction 5 μL of Development solution was added to each well, sealed and incubated at 25-30° C. for another 1 h in dark. 3) Reaction Stopping and Plate Reading 5 μL of stopping solution was added to each well. The Coumarin value (excitation at 400 nm, emission at 445 nm) and Fluorescein value (excitation at 400 nm, emission at 520 nm) were measured, respectively. 4. […] Coumarin emission read-out (445 nm)/Fluorescein emission read-out (520 nm); • C3 445 nm: 100% phosphorylated Coumarin emission read-out; • C3 520 nm: 100% phosphorylated Fluorescein emission read-out; • C1 445 nm: 0% phosphorylated Coumarin emission read-out; • C1 520 nm: 0% phosphorylated Fluorescein emission read-out. […] 5. IC50 values: calculated by using software XL-FitTM (version 5.3) supplied by ID Business Solutions (Guildford, UK), which is an additional software to Microsoft Excel.

[2] = target: CSF1R phosphorylation in THP-1 cells (Homo sapiens (Human), UniProt P07333); assay: Detection of CSF1R phosphorylation activity at cell level (p-CSF1R ELISA, M-CSF stimulated THP-1 cells); format: cell-based; conditions: THP-1 cells, M-CSF stimulation, p-CSF1R ELISA; read-out: IC50
Experimental: THP-1 (ATCC), human acute monocytic leukemia cells.
3. Treatment of cells and preparation of lysis buffer
5 μL. of the diluted compound was added to the 50 μL cell culture system, the culture was cultured in a 5% CO2, 37° C. cell incubator for 60 min, 300 ng/mL of M-CSF was added to the cells, and the mixture was stimulated in the 37° C. cell incubator for 1 min, added 50 μL of cell lysis buffer, and stored in a refrigerator at −80° C.
100 μL/well of the p-CSF1R capture antibody diluted to 0.8 μg/mL with PBS was added to the ELISA plate, and the plate was coated on a shaker at room temperature overnight. The culture was washed with PBST, and then added blocking solution and incubated at room temperature for 2 h. The culture was washed with PBST, added 90 μL of cell lysis buffer, and incubated on a shaker at 25° C. for 2 h. The plate was washed with PBST three times, added 100 μL of anti-p-tyrosine-HRP detection antibody diluted with 0.1% PBS-BSA diluent, and incubated on a shaker at 25° C. for 2 h. The plate was washed with PBST washing liquid, added 100 μL of chromogenic substrate and incubated at room temperature for 10-20 min. The reaction was stopped by adding 50 μL of 2N H2SO4. The optical density signal (450/570 nm) of each well was detected in Labsystems Multiskan K3 or Envision.
wherein • Drug-treated well read-out: indicating the optical density signal of a cell well with the test compound treatment. • Background read-out: indicating the optical density signal of a well without cells but with cell lysis buffer. • Cell well read-out: indicating the optical density signal of a cell well not treated with the compound.
6. Calculation of IC50: obtained by using XL-Fit 5.3 software, […]

Recombinant human CSF1R kinase, sequence (P07333 20-972): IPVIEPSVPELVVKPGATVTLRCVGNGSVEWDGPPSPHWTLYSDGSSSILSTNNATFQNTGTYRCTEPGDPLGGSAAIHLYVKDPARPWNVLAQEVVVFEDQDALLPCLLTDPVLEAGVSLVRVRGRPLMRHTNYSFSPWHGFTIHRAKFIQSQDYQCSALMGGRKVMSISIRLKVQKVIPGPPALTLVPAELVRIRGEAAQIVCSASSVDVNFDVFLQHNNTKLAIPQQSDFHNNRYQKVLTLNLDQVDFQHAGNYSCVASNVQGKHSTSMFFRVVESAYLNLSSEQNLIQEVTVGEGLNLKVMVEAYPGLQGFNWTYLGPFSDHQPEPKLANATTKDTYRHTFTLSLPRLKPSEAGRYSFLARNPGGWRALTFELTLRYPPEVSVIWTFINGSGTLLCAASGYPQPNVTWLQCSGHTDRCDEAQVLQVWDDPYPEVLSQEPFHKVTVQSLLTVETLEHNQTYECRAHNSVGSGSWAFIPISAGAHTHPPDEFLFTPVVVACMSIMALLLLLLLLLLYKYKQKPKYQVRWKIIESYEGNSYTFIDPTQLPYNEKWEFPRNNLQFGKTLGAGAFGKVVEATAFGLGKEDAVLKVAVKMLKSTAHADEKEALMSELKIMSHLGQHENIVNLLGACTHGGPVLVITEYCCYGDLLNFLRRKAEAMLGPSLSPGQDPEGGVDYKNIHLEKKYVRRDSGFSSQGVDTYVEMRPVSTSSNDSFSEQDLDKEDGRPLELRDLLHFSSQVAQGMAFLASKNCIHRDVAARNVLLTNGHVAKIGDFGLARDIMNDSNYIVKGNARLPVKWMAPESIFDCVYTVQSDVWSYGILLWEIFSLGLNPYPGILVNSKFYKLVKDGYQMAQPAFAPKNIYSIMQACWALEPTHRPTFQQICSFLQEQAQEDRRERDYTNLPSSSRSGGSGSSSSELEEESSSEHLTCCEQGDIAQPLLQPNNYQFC
CSF1R phosphorylation in THP-1 cells, sequence (P07333 20-972): as above

Structure (SMILES): Cc1cnc2ccc(Oc3cnc4c(c3)OC[C@H](c3ccc(C5CC5)nc3)O4)cn2c1=O [Compound 62]
- IC50 [1]: 4 nM
- IC50 [2]: 47 nM

Structure (SMILES): COc1ccc([C@@H]2COc3cc(Oc4ccc5nccc(=O)n5c4)cnc3O2)cc1 [Compound 63]
- IC50 [1]: 5 nM
- IC50 [2]: 18 nM

Structure (SMILES): COc1ccc([C@H]2COc3cc(Oc4ccc5nccc(=O)n5c4)cnc3O2)cc1 [Compound 64]
- IC50 [1]: 10 nM
- IC50 [2]: 42 nM

Structure (SMILES): COc1ccc([C@@H]2COc3cc(Oc4ccc5ncc(C)c(=O)n5c4)cnc3O2)cc1 [Compound 65]
- IC50 [1]: 5 nM
- IC50 [2]: 10 nM

Structure (SMILES): COc1ccc([C@H]2COc3cc(Oc4ccc5ncc(C)c(=O)n5c4)cnc3O2)cc1 [Compound 66]
- IC50 [1]: 10 nM
- IC50 [2]: 56 nM

Structure (SMILES): COc1ccc([C@@H]2COc3cc(Oc4ccnc(-c5cnn(C)c5)c4)cnc3O2)cc1 [Compound 67]
- IC50 [1]: 5 nM
- IC50 [2]: 16 nM

Structure (SMILES): COc1ccc([C@H]2COc3cc(Oc4ccnc(-c5cnn(C)c5)c4)cnc3O2)cc1 [Compound 68]
- IC50 [1]: 6 nM
- IC50 [2]: 21 nM

Structure (SMILES): COc1ccc([C@@H]2COc3cc(Oc4ccnc(-c5cnn(C)c5)c4)cnc3O2)cn1 [Compound 69]
- IC50 [1]: 3 nM
- IC50 [2]: 17 nM

Structure (SMILES): COc1ccc([C@H]2COc3cc(Oc4ccnc(-c5cnn(C)c5)c4)cnc3O2)cn1 [Compound 70]
- IC50 [1]: 8 nM
- IC50 [2]: 15 nM

Structure (SMILES): O=c1ccnc2ccc(Oc3cnc4c(c3)OC[C@H](c3ccc(C5CC5)cn3)O4)cn12 [Compound 71]
- IC50 [1]: 30 nM
- IC50 [2]: 114 nM

Structure (SMILES): O=c1ccnc2ccc(Oc3cnc4c(c3)OC[C@@H](c3ccc(C5CC5)cn3)O4)cn12 [Compound 72]
- IC50 [1]: 14 nM
- IC50 [2]: 32 nM

Structure (SMILES): Cn1cc(-c2cc(Oc3cnc4c(c3)OC[C@H](c3ccc(C5CC5)cn3)O4)ccn2)cn1 [Compound 73]
- IC50 [1]: 6 nM
- IC50 [2]: 17 nM

Structure (SMILES): Cn1cc(-c2cc(Oc3cnc4c(c3)OC[C@@H](c3ccc(C5CC5)cn3)O4)ccn2)cn1 [Compound 74]
- IC50 [1]: 5 nM
- IC50 [2]: 9 nM

Structure (SMILES): Cc1cnc2ccc(Oc3cnc4c(c3)OC[C@H](c3ccc(C5CC5)cn3)O4)cn2c1=O [Compound 75]
- IC50 [1]: 15 nM
- IC50 [2]: 117 nM

Structure (SMILES): Cc1cnc2ccc(Oc3cnc4c(c3)OC[C@@H](c3ccc(C5CC5)cn3)O4)cn2c1=O [Compound 76]
- IC50 [1]: 8 nM
- IC50 [2]: 18 nM

Structure (SMILES): COc1ccc([C@@H]2COc3cc(Oc4ccc5nccc(=O)n5c4)cnc3O2)nc1 [Compound 78]
- IC50 [1]: 26 nM
- IC50 [2]: 64 nM

Structure (SMILES): COc1ccc([C@H]2COc3cc(Oc4ccc5ncc(C)c(=O)n5c4)cnc3O2)nc1 [Compound 79]
- IC50 [1]: 30 nM
- IC50 [2]: 182 nM

Structure (SMILES): COc1ccc([C@@H]2COc3cc(Oc4ccc5ncc(C)c(=O)n5c4)cnc3O2)nc1 [Compound 80]
- IC50 [1]: 13 nM
- IC50 [2]: 22 nM

Structure (SMILES): COc1ccc([C@H]2COc3cc(Oc4ccnc(-c5cnn(C)c5)c4)cnc3O2)nc1 [Compound 81]
- IC50 [1]: 10 nM
- IC50 [2]: 32 nM

Structure (SMILES): COc1ccc([C@@H]2COc3cc(Oc4ccnc(-c5cnn(C)c5)c4)cnc3O2)nc1 [Compound 82]
- IC50 [1]: 11 nM
- IC50 [2]: 13 nM

Structure (SMILES): COc1ccc([C@H]2COc3cc(Oc4ccc5nccc(=O)n5c4)cnc3O2)cn1 [Compound 83, (S)-7-((3-(6-methoxypyridin-3-yl)-2,3-dihydro-[1,4]dioxino[2,3-b]pyridin-7-yl)oxy)-4H-pyrido[1,2-a]pyrimidin-4-one]
- IC50 [1]: 7 nM
- IC50 [2]: 138 nM

Structure (SMILES): COc1ccc([C@H]2COc3cc(Oc4ccc5ncc(C)c(=O)n5c4)cnc3O2)cn1 [Compound 84]
- IC50 [1]: 8 nM
- IC50 [2]: 84 nM
